Experimental data published in patent publication US20190330189A1, “ANTIBACTERIAL COMPOUNDS” (Janssen Sciences Ireland UC, priority 2015, published 2019).
Read-outs that look alike come from different tables or passages of the source.

Experiments:
[1] = system: Mycobacterium tuberculosis strain H37Rv; assay: Test 1: MIC determination, resazurin fluorescence, M. tuberculosis H37Rv; type: cell-based; settings: for IC50: Mycobacterium tuberculosis, H37RV
[2] = system: Mycobacterium tuberculosis strain EH 4.0 (361.269); assay: Test 4: MIC determination, resazurin fluorescence, strain EH 4.0; type: cell-based; settings: for IC50: Mycobacterium tuberculosis, read-out: pIC50, Test 4, M. tuberculosis strain EH 4.0 (361.269) (converted); for pIC50: Test 4, M. tuberculosis strain EH 4.0 (361.269)
Source text: TEST 4 (See Also Test 1 Above; in this Test a Different Strain of Mycobacterium tuberculosis Strain is Employed)
Appropriate solutions of experimental and reference compounds were made in 96 well plates with 7H9 medium. Samples of Mycobacterium tuberculosis strain EH 4.0 (361.269) were taken from cultures in stationary growth phase. These were first diluted to obtain an optical density of 0.3 at 600 nm wavelength and then diluted 1/100, resulting in an inoculum of approximately 5×10 exp5 colony forming units per well. Plates were incubated at 37° C. in plastic bags to prevent evaporation. After 7 days, resazurin was added to all wells.

[3] = Test 1, M. tuberculosis H37Rv, first test, read-out: pIC50 (converted)
[4] = Test 1, repeated (2nd) test, read-out: pIC50 * (converted)
[5] = Test 1, repeated (3rd) test, read-out: pIC50 ** (converted)
[6] = Test 1, M. tuberculosis H37Rv, first test

Compound: CCc1nc2ccc(Cl)cn2c1C(=O)NCc1ccc(C2CC3(C2)CN(c2ccc(OC(F)(F)F)cc2)C3)cc1 [Compound 2]
- IC50 [1, 3]: 16.2 nM
- IC50 [1, 4]: 14.8 nM
- IC50 [1, 5]: 11.7 nM
- IC50 [2]: 50.1 nM

Compound: CCc1nc2ncc(Cl)cn2c1C(=O)NCc1ccc(C2CC3(C2)CN(c2ccc(OC(F)(F)F)cc2)C3)cc1 [Compound 3]
- IC50 [1, 3]: 25.7 nM
- IC50 [1, 4]: 26.3 nM
- IC50 [1, 5]: 25.7 nM
- IC50 [2]: 5.01 nM

Compound: CCc1nc2n(c1C(=O)NCc1ccc(N3CC4(C3)CN(c3ccc(OC(F)(F)F)cc3)C4)cc1)CCCC2 [Compound 6]
- IC50 [1, 3]: 141 nM
- IC50 [1, 4]: 102 nM
- IC50 [1, 5]: 129 nM
- IC50 [2]: 25.1 nM

Compound: CCc1nc2ccc(Cl)cn2c1C(=O)NCc1ccc(N2CC3(CC(c4ccc(OC(F)(F)F)cc4)C3)C2)cc1 [Compound 7]
- IC50 [1, 3]: 100 nM
- IC50 [1, 4]: 75.9 nM
- IC50 [1, 5]: 79.4 nM
- IC50 [2]: 15.8 nM

Compound: CCc1nc2ncc(Cl)cn2c1C(=O)NCc1ccc(N2CC3(CC(c4ccc(OC(F)(F)F)cc4)C3)C2)cc1 [Compound 8]
- IC50 [1, 3]: 148 nM
- IC50 [1, 4]: 186 nM
- IC50 [1, 5]: 170 nM
- IC50 [2]: 50.1 nM

Compound: CCc1nc2ncc(Cl)cn2c1C(=O)NCc1ccc(N2CC3(CC(c4ccccc4)C3)C2)cc1 [Compound 9]
- IC50 [1, 3]: 83.2 nM
- IC50 [1, 4]: 72.4 nM
- IC50 [1, 5]: 53.7 nM
- IC50 [2]: 12.6 nM

Compound: CCc1nc2ccc(Cl)cn2c1C(=O)NCc1ccc(N2CC3(CC(c4ccc(S(F)(F)(F)(F)F)cc4)C3)C2)cc1 [Compound 10]
- IC50 [1, 3]: 148 nM
- IC50 [1, 4]: 141 nM
- IC50 [1, 5]: 107 nM
- IC50 [2]: 31.6 nM

Compound: CCc1nc2ncc(Cl)cn2c1C(=O)NCc1ccc(N2CC3(CC(c4cccnc4)C3)C2)cc1 [Compound 11]
- IC50 [1, 3]: 1860 nM
- IC50 [1, 4]: 3020 nM
- IC50 [1, 5]: 1200 nM
- IC50 [2]: 794 nM

Compound: Cc1nc2sc(Br)cn2c1C(=O)NCc1ccc(N2CC3(CCC3)C2)cc1 [Compound 13]
- IC50 [1, 3]: 269 nM
- IC50 [1, 4]: 257 nM
- IC50 [1, 5]: 263 nM
- IC50 [2]: 31.6 nM

Compound: CCc1nc2ccc(Cl)cn2c1C(=O)NCC1CCC2(CCN(c3ccc(OC(F)(F)F)cc3)CC2)CO1 (stereo not shown) [Compound 14]
- IC50 [1, 3]: 2820 nM
- IC50 [1, 4]: 2950 nM
- IC50 [2]: 398 nM

Compound: CCc1nc2ccc(Cl)cn2c1C(=O)NCC1CC2(CCN(c3ccc(OC(F)(F)F)cc3)CC2)C1 [Compound 15]
- IC50 [1, 3]: 102 nM
- IC50 [1, 4]: 95.5 nM
- IC50 [2]: 158 nM

Compound: CCc1nc2ccc(Cl)cn2c1C(=O)NCc1ccc(N2CC3(CC(F)C3)C2)cc1 [Compound 16]
- pIC50 [1, 6]: 6.55
- pIC50 * ([1]; Test 1, repeated (2nd) test): 6.61
- pIC50 [2]: 8.0

Compound: CCc1nc2ccc(Cl)cn2c1C(=O)NCc1ccc(N2CC3(CC(F)C3)C2)cc1 [Compound 17]
- IC50 [1, 4]: 316 nM
- IC50 [1, 5]: 468 nM
- pIC50 [1, 6]: 7.82
- pIC50 [2]: 7.4

Compound: CCc1nc2sc(C)cn2c1C(=O)NCc1ccc(N2CC3(CC(F)C3)C2)cc1 [Compound 18]
- IC50 [1, 3]: 191 nM
- IC50 [1, 4]: 123 nM
- IC50 [1, 5]: 126 nM
- IC50 [2]: 31.6 nM

Compound: CCc1nc2n(c1C(=O)NCc1ccc(N3CC4(CC(F)C4)C3)cc1)CCCC2 [Compound 19]
- IC50 [1, 3]: 794 nM
- IC50 [1, 4]: 1150 nM
- IC50 [1, 5]: 1070 nM
- IC50 [2]: 1260 nM

Compound: CCc1nc2sc(C)cn2c1C(=O)NCc1ccc(N2CC3(CC(=O)C3)C2)cc1 [Compound 21]
- IC50 ([1]; read-out: pIC50 (converted)): 2450 nM
- IC50 ([1]; read-out: pIC50 * (converted)): 1050 nM
- IC50 ([1]; read-out: pIC50 ** (converted)): 1380 nM
- IC50 [2]: 100 nM

Compound: Cc1nc2sccn2c1C(=O)NCc1ccc(N2CC3(CC(c4ccc(OC(F)(F)F)cc4)C3)C2)cc1 [Compound 24]
- IC50 ([1]; read-out: pIC50 (converted)): 200 nM
- IC50 ([1]; read-out: pIC50 * (converted)): 275 nM
- IC50 ([1]; read-out: pIC50 ** (converted)): 115 nM
- IC50 [2]: 251 nM

Compound: CCc1nc2sc(C)cn2c1C(=O)NCc1ccc(N2CC3(COC3)C2)cc1 [Compound 27]
- IC50 [1, 3]: 4070 nM
- IC50 [1, 4]: 4170 nM
- IC50 [1, 5]: 2880 nM
- IC50 [2]: 398 nM

Compound: CCc1nc2ccc(Cl)cn2c1C(=O)NCc1ccc(N2CC3(CCN(c4ccc(OC(F)(F)F)cc4)CC3)C2)cc1 [Compound 28]
- IC50 [1, 3]: 6030 nM
- IC50 [1, 4]: 7590 nM
- IC50 [1, 5]: 7410 nM
- IC50 [2]: 3.16 nM
